In patent EP2853293B1, “Thioninium compounds and their use” (WisTa Laboratories Ltd., priority 2006, dated 2007):
Counter-ions that a name gives are not always drawn. Like-named read-outs stand apart in the source and are kept apart here.

Columns and labels:
[1] = target: T1, tau-tau binding (truncated tau residues 297-390; dGA, and full-length tau (T40)) (Homo sapiens, UniProt P10636); assay: biochemical
Excerpt: (§1) Briefly, a fragment of tau corresponding to the core repeat domain, which has been adsorbed to a solid phase substrate, is able to capture soluble full-length tau and bind tau with high affinity.
(§2) The aqueous phase binding buffer contained 0.05% Tween-20 and 1% gelatine in phosphate-buffered saline (pH7.4).

[2] = target: T1, tau-tau binding (truncated tau residues 297-390; dGA, and full-length tau (T40)); conditions: read-out: B50; concentration of compound required to inhibit the tau-tau binding by 50%
Excerpt: as §1, §2

[3] = target: T2, full-length tau ("T40") in fibroblast cells (3T6) (Homo sapiens, UniProt P10636); assay: Cell-based assay for establishing EC50 (inhibition of generation of the 12 kD PHF-core tau fragment); conditions: concentration at which there is a 50% inhibition of generation of the 12 kD fragment; 3T6 cells
T2 construct: fibroblast cells (3T6) express full-length tau ("T40") under control of an inducible promotor; low constitutive levels of the PHF-core tau fragment (12 kD fragment); expressed in transfected cells; host or cells: 3T6 fibroblast cells
T2 sequence (P10636 2-441 isoform P10636-8 limits assumed): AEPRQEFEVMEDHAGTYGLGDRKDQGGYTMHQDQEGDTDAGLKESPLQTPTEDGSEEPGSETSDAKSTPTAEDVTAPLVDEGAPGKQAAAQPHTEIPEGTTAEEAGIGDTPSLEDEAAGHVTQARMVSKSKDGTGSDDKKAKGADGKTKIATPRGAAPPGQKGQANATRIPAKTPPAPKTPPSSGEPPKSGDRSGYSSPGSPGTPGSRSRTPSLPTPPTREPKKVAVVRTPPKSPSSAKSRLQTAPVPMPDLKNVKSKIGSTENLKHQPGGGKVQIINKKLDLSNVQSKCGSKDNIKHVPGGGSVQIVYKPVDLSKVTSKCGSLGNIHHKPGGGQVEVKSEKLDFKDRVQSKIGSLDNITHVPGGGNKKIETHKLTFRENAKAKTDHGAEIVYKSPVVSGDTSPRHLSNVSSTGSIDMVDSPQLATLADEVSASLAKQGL
Excerpt: In essence, fibroblast cells (3T6) express full-length tau ("T40") under control of an inducible promotor, and low constitutive levels of the PHF-core tau fragment (12 kD fragment).
This is referred to as the EC50 value.

fibroblast cells (3T6) = conditions: cell numbers after 24 hrs exposure, lactate dehydrogenase assay after lysis of remaining cells
Experimental: Toxicity of the compounds described herein was assessed in the cell based assay used to assess EC50. Toxicity was measured by cell numbers after 24 hrs exposure to the compound using a lactate dehydrogenase assay kit TOX-7(Sigma Biosciences) according to the manufacturer's instructions after lysis of remaining cells. Alternatively a kit from Promega UK (CytoTox 96) was used, again according to the manufacturer's instructions.

T1 sequence (P10636 614-707): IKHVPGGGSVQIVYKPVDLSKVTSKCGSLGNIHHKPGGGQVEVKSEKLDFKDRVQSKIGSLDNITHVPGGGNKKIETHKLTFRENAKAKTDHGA
T1 sequence (P10636 1-441 isoform P10636-8): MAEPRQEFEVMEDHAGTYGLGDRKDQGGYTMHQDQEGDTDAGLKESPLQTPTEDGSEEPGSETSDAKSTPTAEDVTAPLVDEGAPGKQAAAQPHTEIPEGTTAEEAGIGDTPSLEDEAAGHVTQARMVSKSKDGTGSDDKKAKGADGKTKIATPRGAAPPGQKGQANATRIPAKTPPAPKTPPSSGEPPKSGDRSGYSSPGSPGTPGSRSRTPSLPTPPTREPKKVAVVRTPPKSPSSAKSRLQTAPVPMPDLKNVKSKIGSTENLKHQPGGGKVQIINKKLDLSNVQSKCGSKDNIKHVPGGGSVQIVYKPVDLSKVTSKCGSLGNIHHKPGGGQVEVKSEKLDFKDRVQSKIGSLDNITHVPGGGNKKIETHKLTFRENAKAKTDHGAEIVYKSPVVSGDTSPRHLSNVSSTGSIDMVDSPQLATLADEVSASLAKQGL

Row | Compound | IC50 [1] [nM] | IC50 [2] [nM] | EC50 [3] [nM] | LD50 (fibroblast cells (3T6))
1 | CCN(CC)c1ccc2nc3ccc(=[N+](CC)CC)cc-3sc2c1 [ETI.HI, ethyl-thioninium iodide hydrogen iodide mixed salt] | 83000 |  |  | 
2 | CCN(CC)c1ccc2nc3ccc(=[N+](CC)CC)cc-3sc2c1 [ETI, ethyl-thioninium iodide] |  | > 500000 | 60 | 
3 | ethyl-thioninium chloride [ETC] |  | 49000 ± 8500 | 70 ± 7 | 32.0 ± 4.0 (26) µM
4 | Cc1cc(N(C)C)cc2[s+]c3cc(N(C)C)cc(C)c3nc12 [DMMTC, 1,9-dimethyl-methyl-thioninium chloride, reference compound] |  |  | 40 ± 4 | 2.7 ± 1.2 (6) µM
5 | CCc1cc(N(C)C)cc2[s+]c3cc(N(C)C)cc(CC)c3nc12 [DEMTC, 1,9-diethyl-methyl-thioninium chloride] |  |  | 1.6 ± 0.6 | 3.3 ± 0.6 (22) µM
6 | CCN(CC)c1cc(C)c2nc3c(C)cc(N(CC)CC)cc3[s+]c2c1 [DMETC, 1,9-dimethyl-ethyl-thioninium chloride] |  | 4500 ± 300 | 4 ± 1 | 4.2 ± 2.2 (4) µM
7 | CCc1cc(N(CC)CC)cc2[s+]c3cc(N(CC)CC)cc(CC)c3nc12 [DEETC, 1,9-diethyl-ethyl-thioninium chloride] |  | 3700 ± 500 | 0.6 ± 0.3 | 1.6 ± 0.4 (13) µM
